Results taken from patent US10287581B2, “Cell penetrating peptides for intracellular delivery of molecules” (AADIGEN, LLC, priority 2011, dated 2019).
Like-named read-outs stand apart in the source and are kept apart here.

How the values were obtained:
[1] = target: SS-DNA: single-stranded DNA; experiment: Binding of single-stranded DNA to VEPEP-6 peptides by fluorescence spectroscopy
Method: (§1) FIG. 2: Binding of nucleic acid to VEPEP-6a as monitored by TRP-intrinsic fluorescence spectroscopy. Dissociation constants were calculated from data fitting. Nucleic acids used: double stranded DNA (45/35 mer), siRNA (19/19 or 25/25) and single stranded DNA (19 or 36 mer)
(§2) VEPEP-6 peptide form stable complexes with siRNA, single stranded and double stranded oligonucleotides. The binding of cargos to VEPEP-6 was monitored by fluorescence spectroscopy using the both intrinsic Trp group of VEPEP-6 (3 to 5 Trp-residues) and extrinsic fluorescently labeled cargoes (using Cy3, Cy5 or FITC). Fluorescence experiments were performed on a PTI spectrofluorimeter at 25° C. in a NaCl 154 mM buffer. Intrinsic Trp-fluorescence of VEPEP-6 was excited at 290 nm and emission spectrum was recorded between 310 and 400 nm, with a spectral band-pass of 2 and 8 nm for excitation and emission, respectively. FITC-fluorescence of labelled-siRNA or DNA was excited at 492 nm and emission recorded between 500 and 580 nm. For VEPEP-6/siRNA interaction, 0.5 μM of FITC-labelled siRNA was titrated by increasing concentrations of peptide. All measurements were corrected for the dilution and curve fitting were performed by using Grafit software (Erithacus). Curve fitting reveal that VEPEP-6 strongly binds the different cargoes with dissociation constant in the nanomolar range (Table 1 and FIG. 2).
(§3) Binding of nucleic acid to ST-VEPEP-6aa was monitored by fluorescence spectroscopy using both TRP-intrinsic and fluorescently labelled nucleic acids. Dissociation constants were calculated from data fitting. Nucleic acids used were double stranded siRNA (19/19 or 25/25) and single stranded DNA (36 mer).

siRNA = experiment: Binding of siRNA to VEPEP-6 peptides by fluorescence spectroscopy
Method: as §1, §2, §3

[2] = system: DD-DNA: double-stranded DNA; experiment: Binding of double-stranded DNA to VEPEP-6 peptides by fluorescence spectroscopy; settings: cargo DD-DNA
Method: as §1, §2

[3] = Binding of FAM-guanosine to VEPEP-6 by FAM fluorescence; settings: cargo FAM-guanosine
Method: (§4) FIG. 3: Binding of small hydrophobic molecules to VEPEP-6 as monitored by fluorescence spectroscopy. The binding of Doxorubicin, AZT and Porphyrin to VEPEP-6 was monitored by following the quenching of tryptophan-intrinsic VEPEP-6 fluorescence and that of fluoresceine-labelled-Guanosine (FAM-G) by monitoring FAM-fluorescence. Dissociation constants were calculated from data fitting.
FIGS. 8A and 8B: (8A) Binding of small hydrophobic fluorescent molecules (SFM) to VEPEP-6 as monitored by fluorescence spectroscopy. In the present case, a fluorescently labeled nucleotide (fluorescein-labeled-Guanine) was used. Dissociation constants were calculated from data fitting. (8B) Effect of VEPEP-6 mediated doxorubicin on cancer cell viability. Dose responses of free (white bars) and VEPEP-6 mediated (grey bars) doxorubicin have been evaluated on the viability of U2OS and MCF7 cancer cells.
(§5) VEPEP-6 peptides also form stable particles with small aromatic and/or hydrophobic molecules including daunomycin, Paclitaxel, doxorubicin, AZT, porphyrin, FAM-G or fluorescent dyes (FIG. 3). The dissociation constant for small hydrophobic molecule ranges between 0.03 to 4 μM, depending on the nature of the dyes and of the peptides.

[4] = Binding of doxorubicin to VEPEP-6 by quenching of tryptophan fluorescence; settings: cargo Doxorubicin
Method: as §4, §5

[5] = Binding of porphyrin to VEPEP-6 by quenching of tryptophan fluorescence; settings: cargo porphyrin
Method: as §4, §5

[6] = Binding of AZT to VEPEP-6 by quenching of tryptophan fluorescence; settings: cargo AZT
Method: as §4, §5

cyclin B1 = experiment: Cyclin B1 silencing at protein (Western blotting) and mRNA (Quantigen) level; format: cell-based, Human; settings: 200 nM siRNA complexed with VEPEP-6 at a 1/20 ratio
Method: FIGS. 6A-6C: VEPEP-6 dose response of Cyclin B1 silencing at the protein and mRNA levels on Hela (6A) and HS68 (6B) cells. Stock solution of VEPEP-6/siRNA ([…]) particles were prepared at a molar ratio of 1/20 (siRNA/VEPEP-6), and lower concentrations (from 200 nM to 0.125 nM) were obtained by serial dilution of the stock solution in PBS. HeLa (Panel A) and HS-68 (Panel B) cells (60% confluency) were overlaid with preformed complexes for 30 min, then fresh DMEM supplemented with 10% FCS was added directly to the cells, which were then returned to the incubator for 24 hrs. Cyclin B1 protein levels were determined by Western Blotting using Cdk2 as a control for quantification (white bars). Cyclin B1 mRNA levels were measured 12 hrs after transfection using Quantigen technology (black bars). Mismatched Cyc-B3 siRNA associated with VEPEP-6 (200 nM) and empty VEPEP-6 particles (20 μM) were used as a control. 6C: Dose-response of G2-arrest associated with Cyclin B1 silencing. HeLa (black bars) and HS68 (white bars) cells were treated with increasing concentrations of VEPEP-6/siRNA-Cyc-B1 from 0.25 nM to 20 nM. The cell cycle status was evaluated by FACS analysis. […]
Cyclin B1 mRNA and protein levels were determined 12 and 24 hrs following transduction, using Quantigen (Panomics Inc.) and Western blotting, respectively. […]

[7] = cargo siRNA, 25° C., NaCl 154 mM buffer, read-out: Kd

| Substance | Kd ([1]; single stranded nucleic acid (DNA 36 mer), read-out: dissociation constant) [nM] | Kd (siRNA; double stranded nucleic acid (siRNA 19/19 or 25/25), read-out: dissociation constant) [nM] | Binding ([1]; cargo SS-DNA) | Kd ([1]; cargo SS-DNA, read-out: Kd) [nM] | Binding [2] | Kd [2] [nM] | Binding [3] | Binding [4] | Kd [4] [nM] | Binding [5] | Kd [5] [nM] | Binding [6] | Binding (siRNA; cargo siRNA) | Kd (siRNA; [7]) [nM] | Kd [3] [nM] | Kd [6] [nM] | effect on cyclin B1 levels and cell cycle progression (cyclin B1) |
| --- | --- | --- | --- | --- | --- | --- | --- | --- | --- | --- | --- | --- | --- | --- | --- | --- | --- |
| Ac-[βA/S]LWRALWRL[L/C/I]RNLWRLLW[K/R]A-cysteamide [VEPEP-6f] |  |  | yes | 50 to 100 | yes | 200 | yes | yes | 200 | yes | 200 | yes | yes | 10 to 20 | 2800 | 2400 |  |
| Ac-[βA/S]LWRALWRL[L/C/I]R[S/T]LWRLWR[K/R]A-cysteamide [VEPEP-6c] |  |  | yes | 50 to 100 | yes | 200 | yes | yes | 30 | yes | 1200 | yes | yes | 10 to 20 | 4000 | 300 |  |
| Ac-[βA/S]LWRALWRL[L/I]RALWRLLW[K/R]A-cysteamide [VEPEP-6e] |  |  | yes | 50 to 100 | yes | 200 | yes | yes | 500 | yes | 200 | yes | yes | 10 to 20 | 2300 | 900 |  |
| si-GAPDH: unrelated siRNA targeting GAPDH, SEQ ID No: 21/22 (chain 1 CAUCAUCCCUGCCUCUACUTT; chain 2 AGUAGAGGCAGGGAUGAUG; chemistry not given here) |  |  |  |  |  |  |  |  |  |  |  |  |  |  |  |  | no effect |

Second part, led by results:

| Kd ([1]; single stranded nucleic acid (DNA 36 mer), read-out: dissociation constant) [nM] | Kd (siRNA; double stranded nucleic acid (siRNA 19/19 or 25/25), read-out: dissociation constant) [nM] | Binding ([1]; cargo SS-DNA) | Kd ([1]; cargo SS-DNA, read-out: Kd) [nM] | Binding [2] | Kd [2] [nM] | Binding [3] | Binding [4] | Kd [4] [nM] | Binding [5] | Kd [5] [nM] | Binding [6] | Binding (siRNA; cargo siRNA) | Kd (siRNA; [7]) [nM] | Kd [3] [nM] | Kd [6] [nM] | Substance | effect on cyclin B1 levels and cell cycle progression (cyclin B1) |
| --- | --- | --- | --- | --- | --- | --- | --- | --- | --- | --- | --- | --- | --- | --- | --- | --- | --- |
| 4 | 7 |  |  |  |  |  |  |  |  |  |  |  |  |  |  | Ac-X1LFLARWRsLLRSsLWRLLWK-cysteamide [ST-VEPEP-6aa] |  |
|  |  | yes | 50 to 100 | yes | 200 | no | yes | 1000 | yes | 4000 | no | yes | 10 to 20 |  |  | Ac-[βA/S]LFRALWRLLR[S/T]LWRLLW[K/R]-cysteamide [VEPEP-6a] |  |
|  |  | yes | 50 to 100 | yes | 200 | no | yes | 700 | yes | 5000 | no | yes | 10 to 20 |  |  | Ac-[βA/S]LWRALWRLWR[S/T]LWRLLW[K/R]A-cysteamide [VEPEP-6b] |  |
|  |  | yes | 50 to 100 | yes | 200 | yes | yes | 500 | yes | 500 | yes | yes | 10 to 20 | 800 | 100 | Ac-[βA/S]LWRALWRLWR[S/T]LWRLWR[K/R]A-cysteamide [VEPEP-6d] |  |
